Results taken from US7282519B2 (priority 2003, dated 2007).
Where two headings read alike, the source gives them in different places.

What was measured:
Normal Rat [1] = experiment: Measurement of urine excretion using a nitrosated diuretic compound, intravenous; assay type: in vivo, Male Wistar rats; conditions: for Total Urine Volume (ml) at: 0.5 h / Total Urine Volume (ml) at: 1 h / Total Urine Volume (ml) at: 2 h: normal rat, intravenous slow bolus, 3 mg/kg (Example 12: 3 mg/kg equivalent), n = 6
Normal Rat [2] = assay type: in vivo, Male Wistar rats; conditions: intravenous slow bolus, 1 mg/kg (each compound), n = 3

melting point	SMILES	other results
135 °C	NS(=O)(=O)c1cc(C(=O)OCC(=O)NCCO[N+](=O)[O-])c(NCc2ccco2)cc1Cl	
125 to 138 °C (dec.)	C[C@@H](CNC(=O)COC(=O)c1cc(S(N)(=O)=O)c(Cl)cc1NCc1ccco1)O[N+](=O)[O-]	
51 to 61 °C	NS(=O)(=O)c1cc(C(=O)NCCOC(=O)[C@@H]2CCCN2[15N]=O)c(NCc2ccco2)cc1Cl	
79 to 81 °C	NS(=O)(=O)c1cc(C(=O)OC[C@H]2CCCN2N=O)c(NCc2ccco2)cc1Cl	
70 to 72 °C	CN(CCO[N+](=O)[O-])C(=O)COC(=O)c1cc(S(N)(=O)=O)c(Cl)cc1NCc1ccco1	
115 to 117 °C	NS(=O)(=O)c1cc(C(=O)OCC(=O)N2CCC(CO[N+](=O)[O-])CC2)c(NCc2ccco2)cc1Cl	
170 °C	NS(=O)(=O)c1cc(C(=O)OCC(=O)N2CCC(CCO[N+](=O)[O-])CC2)c(NCc2ccco2)cc1Cl	
60 to 62 °C	CCN(CCO[N+](=O)[O-])C(=O)COC(=O)c1cc(S(N)(=O)=O)c(Cl)cc1NCc1ccco1	
115 to 118 °C	NS(=O)(=O)c1cc(C(=O)OCC(=O)N[C@@H](CCO[N+](=O)[O-])CO[N+](=O)[O-])c(NCc2ccco2)cc1Cl	
64 to 66 °C	NS(=O)(=O)c1cc(C(=O)OCC(=O)N2CCC[C@@H]2CO[N+](=O)[O-])c(NCc2ccco2)cc1Cl	
	NS(=O)(=O)c1cc(C(=O)O)c(NCc2ccco2)cc1Cl [Furosemide, furosemide, reference compound]	Total Urine Volume (ml) at: 0.5 h (Normal Rat [1]): 6.7 ± 1.2 mL; Total Urine Volume (ml) at: 1 h (Normal Rat [1]): 8.8 ± 1.2 mL; Total Urine Volume (ml) at: 2 h (Normal Rat [1]): 11.0 ± 1.3 mL; Total Urine Volume (ml) at: 1 h (Normal Rat [2]; 1 h, mean ± spread): 3.3 ± 1.7 mL; Total Urine Volume (ml) at: 2 h (Normal Rat [2]; 2 h): 3.3 ± 1.7 mL; Total Urine Volume (ml) at: 3 h (Normal Rat [2]; 3 h): 5.0 ± 0.6 mL

SMILES	melting point	other results
NS(=O)(=O)c1cc(C(=O)OCC(=O)NC[C@H](CO[N+](=O)[O-])O[N+](=O)[O-])c(NCc2ccco2)cc1Cl [Example 12, (N-((2R)-2,3-Bis(nitrooxy)propyl)carbamoyl)methyl4-chloro-2-((2-furylmethyl)amino)-5-sulfamoylbenzoate]	143 to 153 °C (dec.)	Total Urine Volume (ml) at: 0.5 h (Normal Rat [1]): 4.2 ± 0.4 mL; Total Urine Volume (ml) at: 1 h (Normal Rat [1]): 5.3 ± 0.5 mL; Total Urine Volume (ml) at: 2 h (Normal Rat [1]): 6.2 ± 0.5 mL; Diuresis in the rat (Normal Rat [1]; rat, intravenous, 3 mg/kg equivalent): elicits diuresis
